Holding throughout (assay): Kinase activity inhibition test (Mobility Shift Assay)
Holding throughout (format): biochemical

Experiment [1] addresses JAK1 (Homo sapiens, UniProt P23458). The following applies: 66 μM ATP. The method, then: (§1) • 1. kinases: SYK, JAK1, JAK2, JAK3 and TYK2 • 2. test method
(§2) Protein kinase activity was determined by Mobility Shift Assay. Compound (I) was dissolved in DMSO and prepared into concentration gradients in 100% DMSO. By the dilution with the kinase buffer, 5 μL of Compound (I) (10% DMSO) was added to a 384-well plate at 5 folds of the final reaction concentration. 10 μL of 2.5-fold enzyme solution was added and the incubation was performed at room temperature for 10 min, followed by the addition of 10 μL of 2.5-fold substrate solution. The incubation was performed at 28° C. for 60 min and […] of stop solution was added to the 384-well reaction plate to terminate the reaction (100 mM HEPES, pH 7.5, 0.015% Brij-35, 0.2% Coating Reagent #3, 50 mM EDTA). The conversion data was copied from the Caliper EZ Reader, and converted into the inhibition data, % inhibition=(max-conversion)/(max-min)×100%, wherein, “min” is the conversion for the control sample well where the reaction was performed without adding the enzyme; and “max” is the conversion for the control well where DMSO was added. The curve was drawn with the compound concentration and the inhibition rate as the horizontal and vertical is coordinates, and the IC50 value was calculated by fitting with XLFit excel add-in version 5.4.0.8. Fitting equation:
(§3) Y=Bottom+(Top-Bottom)/(1+(IC50/X)^HillSlope).

The target of experiment [2] is JAK2 (Homo sapiens, UniProt O60674). The following applies: 6.5 μM ATP. The protocol: as §1, §2, §3
The target of experiment [3] is T1, JAK3 (Homo sapiens, UniProt P52333).
T1 sequence (P52333 1-1124): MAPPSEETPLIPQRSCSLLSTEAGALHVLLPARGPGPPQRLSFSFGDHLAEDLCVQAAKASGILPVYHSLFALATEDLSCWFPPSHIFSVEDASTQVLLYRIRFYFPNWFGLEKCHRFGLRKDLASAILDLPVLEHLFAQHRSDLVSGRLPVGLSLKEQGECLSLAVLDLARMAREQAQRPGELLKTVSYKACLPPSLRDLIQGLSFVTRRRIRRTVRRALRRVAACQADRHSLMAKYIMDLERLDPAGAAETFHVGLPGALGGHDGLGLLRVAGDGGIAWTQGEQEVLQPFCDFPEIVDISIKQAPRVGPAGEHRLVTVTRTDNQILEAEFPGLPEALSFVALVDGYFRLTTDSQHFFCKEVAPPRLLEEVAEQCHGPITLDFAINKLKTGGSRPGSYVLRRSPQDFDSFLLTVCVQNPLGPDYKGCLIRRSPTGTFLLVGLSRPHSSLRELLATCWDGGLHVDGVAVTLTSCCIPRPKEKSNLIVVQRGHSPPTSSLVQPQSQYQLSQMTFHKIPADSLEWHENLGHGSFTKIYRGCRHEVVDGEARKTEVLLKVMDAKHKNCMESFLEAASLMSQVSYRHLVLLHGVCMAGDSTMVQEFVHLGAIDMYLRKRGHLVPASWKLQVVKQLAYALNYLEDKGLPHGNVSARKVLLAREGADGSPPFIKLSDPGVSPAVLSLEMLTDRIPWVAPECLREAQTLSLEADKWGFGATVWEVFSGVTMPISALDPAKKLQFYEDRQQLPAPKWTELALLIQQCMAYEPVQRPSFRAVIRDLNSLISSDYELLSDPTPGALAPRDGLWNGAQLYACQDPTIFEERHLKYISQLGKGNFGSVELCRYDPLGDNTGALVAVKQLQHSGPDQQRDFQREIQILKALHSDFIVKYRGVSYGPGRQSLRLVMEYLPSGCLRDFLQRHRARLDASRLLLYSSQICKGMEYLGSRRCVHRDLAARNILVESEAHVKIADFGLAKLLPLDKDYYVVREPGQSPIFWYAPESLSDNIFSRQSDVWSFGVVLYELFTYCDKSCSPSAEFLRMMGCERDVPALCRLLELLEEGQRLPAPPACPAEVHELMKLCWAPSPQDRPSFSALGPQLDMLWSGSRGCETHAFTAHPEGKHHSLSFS
As to conditions: 4.3 μM ATP. The method, then:
as §1, §2, §3

Experiment [4] addresses SYK (Homo sapiens, UniProt P43405). The following applies: 2 μM ATP. The protocol:
as §1, §2, §3

The target of experiment [5] is TYK2 (Homo sapiens, UniProt P29597). As to conditions: 16 μM ATP. The protocol:
as §1, §2, §3

Chain of JAK1 (P23458 whole entry, species assumed): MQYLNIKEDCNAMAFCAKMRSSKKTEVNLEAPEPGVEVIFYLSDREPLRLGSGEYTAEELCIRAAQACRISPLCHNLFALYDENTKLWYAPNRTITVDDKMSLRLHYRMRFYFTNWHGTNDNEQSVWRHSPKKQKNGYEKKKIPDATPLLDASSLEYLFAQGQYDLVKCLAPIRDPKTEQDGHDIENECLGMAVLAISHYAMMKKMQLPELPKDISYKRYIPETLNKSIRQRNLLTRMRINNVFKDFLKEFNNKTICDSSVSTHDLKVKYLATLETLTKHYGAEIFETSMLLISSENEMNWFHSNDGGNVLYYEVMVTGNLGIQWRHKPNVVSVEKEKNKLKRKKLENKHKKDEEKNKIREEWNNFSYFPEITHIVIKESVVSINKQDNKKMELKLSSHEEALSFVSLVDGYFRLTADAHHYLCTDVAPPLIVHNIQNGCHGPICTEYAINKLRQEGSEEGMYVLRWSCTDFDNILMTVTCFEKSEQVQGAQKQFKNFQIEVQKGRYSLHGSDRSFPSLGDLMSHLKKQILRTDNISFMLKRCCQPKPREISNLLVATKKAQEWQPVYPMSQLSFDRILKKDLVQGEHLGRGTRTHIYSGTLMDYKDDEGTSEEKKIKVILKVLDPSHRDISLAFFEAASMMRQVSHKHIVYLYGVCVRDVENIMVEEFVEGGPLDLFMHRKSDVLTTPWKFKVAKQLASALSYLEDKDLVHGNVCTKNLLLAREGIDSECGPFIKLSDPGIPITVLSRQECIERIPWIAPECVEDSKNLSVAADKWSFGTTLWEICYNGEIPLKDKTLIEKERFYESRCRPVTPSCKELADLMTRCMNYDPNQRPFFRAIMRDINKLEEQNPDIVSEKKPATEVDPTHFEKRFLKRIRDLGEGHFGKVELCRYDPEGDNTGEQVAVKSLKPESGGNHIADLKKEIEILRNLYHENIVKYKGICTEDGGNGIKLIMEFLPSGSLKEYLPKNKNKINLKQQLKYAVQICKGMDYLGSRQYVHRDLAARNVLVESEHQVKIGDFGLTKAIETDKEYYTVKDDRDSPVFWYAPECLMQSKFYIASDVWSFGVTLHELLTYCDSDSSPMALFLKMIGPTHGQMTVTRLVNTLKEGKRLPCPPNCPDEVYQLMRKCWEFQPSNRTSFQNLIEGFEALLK
Chain of JAK2 (O60674 whole entry, species assumed): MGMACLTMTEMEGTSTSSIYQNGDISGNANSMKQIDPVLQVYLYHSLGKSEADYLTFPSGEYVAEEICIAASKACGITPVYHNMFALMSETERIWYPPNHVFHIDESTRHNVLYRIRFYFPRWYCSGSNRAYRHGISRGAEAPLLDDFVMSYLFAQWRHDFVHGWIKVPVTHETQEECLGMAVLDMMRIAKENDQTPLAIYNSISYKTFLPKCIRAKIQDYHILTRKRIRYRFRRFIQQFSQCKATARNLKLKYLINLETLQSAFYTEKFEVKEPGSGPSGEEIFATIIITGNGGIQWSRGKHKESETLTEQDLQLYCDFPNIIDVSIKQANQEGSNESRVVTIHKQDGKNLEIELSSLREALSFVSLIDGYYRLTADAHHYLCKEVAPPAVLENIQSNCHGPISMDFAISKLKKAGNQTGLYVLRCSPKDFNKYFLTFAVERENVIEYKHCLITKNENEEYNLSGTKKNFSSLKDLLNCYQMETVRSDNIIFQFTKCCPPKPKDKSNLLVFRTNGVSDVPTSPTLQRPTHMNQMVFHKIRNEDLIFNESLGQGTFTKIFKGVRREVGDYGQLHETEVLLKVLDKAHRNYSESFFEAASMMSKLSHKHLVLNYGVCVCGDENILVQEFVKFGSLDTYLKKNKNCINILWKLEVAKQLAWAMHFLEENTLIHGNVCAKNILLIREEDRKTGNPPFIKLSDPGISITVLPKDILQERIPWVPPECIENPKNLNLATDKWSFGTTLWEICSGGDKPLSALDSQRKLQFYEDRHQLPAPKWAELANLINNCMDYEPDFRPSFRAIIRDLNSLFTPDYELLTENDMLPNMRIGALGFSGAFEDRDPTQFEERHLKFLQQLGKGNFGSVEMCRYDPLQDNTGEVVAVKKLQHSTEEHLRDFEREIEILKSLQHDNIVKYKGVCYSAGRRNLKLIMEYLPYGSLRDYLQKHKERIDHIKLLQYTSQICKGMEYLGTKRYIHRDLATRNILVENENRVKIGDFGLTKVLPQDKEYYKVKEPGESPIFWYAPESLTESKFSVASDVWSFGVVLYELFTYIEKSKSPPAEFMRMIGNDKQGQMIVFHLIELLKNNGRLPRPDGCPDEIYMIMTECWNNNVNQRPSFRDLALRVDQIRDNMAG
Chain of TYK2 (P29597 whole entry, species assumed): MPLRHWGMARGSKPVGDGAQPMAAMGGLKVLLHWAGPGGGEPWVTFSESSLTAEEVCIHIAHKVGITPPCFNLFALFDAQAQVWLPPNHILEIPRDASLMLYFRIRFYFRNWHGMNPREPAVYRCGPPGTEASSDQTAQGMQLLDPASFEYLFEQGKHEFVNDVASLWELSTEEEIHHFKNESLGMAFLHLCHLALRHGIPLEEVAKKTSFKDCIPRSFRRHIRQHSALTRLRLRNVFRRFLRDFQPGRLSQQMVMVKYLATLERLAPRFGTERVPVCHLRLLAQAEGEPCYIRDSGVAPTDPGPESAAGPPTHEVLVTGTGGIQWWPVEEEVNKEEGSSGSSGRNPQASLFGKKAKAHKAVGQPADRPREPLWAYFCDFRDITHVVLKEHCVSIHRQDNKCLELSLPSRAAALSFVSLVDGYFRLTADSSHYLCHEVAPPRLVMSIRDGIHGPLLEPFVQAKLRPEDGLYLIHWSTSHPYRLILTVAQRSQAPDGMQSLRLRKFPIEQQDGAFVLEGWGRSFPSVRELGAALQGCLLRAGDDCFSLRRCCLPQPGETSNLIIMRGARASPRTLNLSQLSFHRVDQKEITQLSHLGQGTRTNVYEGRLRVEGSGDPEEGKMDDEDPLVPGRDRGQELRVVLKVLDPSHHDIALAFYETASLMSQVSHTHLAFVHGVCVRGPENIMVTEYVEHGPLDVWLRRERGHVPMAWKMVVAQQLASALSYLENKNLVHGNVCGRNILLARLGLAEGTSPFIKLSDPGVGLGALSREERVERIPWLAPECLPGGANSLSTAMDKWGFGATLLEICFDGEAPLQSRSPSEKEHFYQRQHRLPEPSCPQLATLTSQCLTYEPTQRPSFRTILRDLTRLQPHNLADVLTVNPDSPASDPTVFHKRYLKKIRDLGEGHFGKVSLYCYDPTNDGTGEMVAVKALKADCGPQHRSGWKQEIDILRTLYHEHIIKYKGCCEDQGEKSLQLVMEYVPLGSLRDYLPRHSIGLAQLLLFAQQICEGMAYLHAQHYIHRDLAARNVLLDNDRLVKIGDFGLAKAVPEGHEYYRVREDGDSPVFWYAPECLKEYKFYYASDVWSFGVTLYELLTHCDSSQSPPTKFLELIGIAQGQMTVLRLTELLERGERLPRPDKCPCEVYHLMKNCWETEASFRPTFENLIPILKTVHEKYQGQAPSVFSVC

Take `NC(=O)c1cnc(Nc2ccc3c(c2)OC[C@H]2CN(S(=O)(=O)C4CC4)CCN32)nc1NC1CC1` [Compound (I), (R)-4-(cyclopropylamino)-2-((3-(cyclopropylsulfonyl)-1,2,3,4,4a,5-hexahydrobenzo[b]pyrazolo[1,2-d][1,4]oxazin-8-yl)amino)pyrimidine-5-arboxamide]: the half-maximal inhibitory concentration (IC50) (as a rule, the concentration that gives 50% inhibition) worked out at 20 nM in experiment [1]; 3.92 nM in experiment [2]; 1.43 nM in experiment [3]; 7.25 nM in experiment [4]; 0.82 nM in experiment [5].

The values above are taken from patent publication US20240165123A1, “USE OF A COMPOUND CONTAINING A TRICYCLIC HETEROARYL GROUP” (CSPC Zhongqi Pharmaceutical Technology (Shijiazhuang) Co., …, priority 2021, published 2024).
